How the values were obtained:
Conditions in all cases: 336 h, Table 3, post-emergence, 14±1 days post application
[1] = test system: Lolium multiflorum (LOLMU); assay: Post-emergence glasshouse test, visual injury, LOLMU; format: in vivo
Method: (§1) Seeds of a variety of test species are grown in a sandy loam soil mixture, Lolium multiflorum (LOLMU), Amaranthus retroflexus (AMARE), Echinochloa crus-gaffi (ECHCG), Veronica persica (VERPE), Glycine max (GLXMA), Oryza sativa (ORYSA), Zea mays (ZEAMX), spring wheat (TRZAS), Ipomoea hederacea (IPOHE), Ipomoea purpurea (PHBPU), Stellaria media (STEME), Solanum nigrum (SOLNI), Digitaria sanguinalis (DIGSA), Setaria italica (SETIT), Alopecurus myosuroides (ALOMY) and Avena fatua (AVEFA).
(§2) After sowing, at growth stage BBCH 12-14 (post-emergence), the plants are sprayed with an aqueous spray solution derived from the formulation of the technical active ingredient in acetone/water (50:50) solution containing 0.5% Tween 20 (polyoxyethlyene sorbitan monolaureate, CAS RN 9005-64-5). The test compounds are applied at the required concentration of active ingredient in g/ha. The test plants are then grown in a glasshouse under controlled environmental conditions and watered regularly as required. After 14±1 days post application (for post-emergence test), the test is evaluated by assessing the percentage damage caused to the plants in comparison with the untreated plots. The biological activities for post-emergence testing are shown below (Table 3 and Table 4) as a % visual injury.

[2] = test system: Echinochloa crus-gaffi (ECHCG); assay: Post-emergence glasshouse test, visual injury, ECHCG; format: in vivo, Echinochloa crus-galli
Method: as §1, §2

Veronica persica (VERPE) = assay: Post-emergence glasshouse test, visual injury, VERPE; format: in vivo
Method: as §1, §2

[3] = test system: Amaranthus retroflexus (AMARE); assay: Post-emergence glasshouse test, visual injury, AMARE; format: in vivo
Method: as §1, §2

| SMILES | pest or weed control at 500 g/ha [1] [%] | pest or weed control at 500 g/ha [2] [%] | pest or weed control at 500 g/ha (Veronica persica (VERPE)) [%] | pest or weed control at 500 g/ha [3] [%] | pest or weed control at 125 g/ha [1] [%] | pest or weed control at 125 g/ha [2] [%] | pest or weed control at 125 g/ha (Veronica persica (VERPE)) [%] | pest or weed control at 125 g/ha [3] [%] | also measured |
| --- | --- | --- | --- | --- | --- | --- | --- | --- | --- |
| Cc1cc(-c2cnc(NCc3cccnc3)nc2C(C)C)on1 [Compound 28] | 0 | 70 | 98 | 90 | – | – | – | – | – |
| Cc1cc(-c2cnc(NCc3ccccn3)nc2C2CC2)on1 [Compound 67] | 20 | 40 | 50 | 60 | – | – | – | – | – |
| C=COCCCNc1ncc(-c2cc(C)no2)c(C(C)C)n1 [Compound 35] | 0 | 60 | 98 | 0 | – | – | – | – | – |
| Cc1cc(-c2cnc(N3CCSCC3)nc2-c2ccc(C)o2)on1 [Compound 90] | – | – | – | – | 0 | 30 | 40 | 30 | – |
| Cc1cc(-c2cnc(NCc3cccs3)nc2C2CC2)on1 [Compound 80] | 30 | 80 | 60 | 60 | – | – | – | – | – |
| Cc1cc(-c2cnc(N3CCCCC3)nc2C(C)C)on1 [Compound 56] | 10 | 0 | 0 | 70 | – | – | – | – | – |
| Cc1cc(-c2cnc(NCc3cccc(F)c3)nc2C(C)C)on1 [Compound 17] | – | – | – | – | – | – | – | – | pest or weed control at 1000 g/ha [1]: 0%; pest or weed control at 1000 g/ha [2]: 80%; pest or weed control at 1000 g/ha (Veronica persica (VERPE)): 100%; pest or weed control at 1000 g/ha [3]: 100% |
| Cc1cc(-c2cnc(NCC3CCCO3)nc2-c2ccc(C)o2)on1 (stereo not shown) [Compound 86] | – | – | – | – | – | – | – | – | pest or weed control at 1000 g/ha [1]: 0%; pest or weed control at 1000 g/ha [2]: 0%; pest or weed control at 1000 g/ha (Veronica persica (VERPE)): 70%; pest or weed control at 1000 g/ha [3]: 0% |
| COc1ccc(CCNc2ncc(-c3cc(C)no3)c(C(C)C)n2)cc1OC [Compound 34] | 30 | 80 | 100 | 70 | – | – | – | – | – |
| Cc1cc(-c2cnc(NCC3CCOCC3)nc2C(C)C)on1 [Compound 109] | – | – | – | – | 0 | 0 | 70 | 40 | – |
| Cc1cc(-c2cnc(NCC3CCCCC3)nc2C(C)C)on1 [Compound 108] | – | – | – | – | 0 | 20 | 50 | 50 | – |
| Cc1cc(-c2cnc(NCC3CCC3)nc2C(C)C)on1 [Compound 87] | – | – | – | – | 30 | 80 | 70 | 50 | – |
| Cc1cc(-c2cnc(NCc3ccncc3)nc2C(C)C)on1 [Compound 18] | – | – | – | – | – | – | – | – | pest or weed control at 1000 g/ha [1]: 60%; pest or weed control at 1000 g/ha [2]: 30%; pest or weed control at 1000 g/ha (Veronica persica (VERPE)): 99%; pest or weed control at 1000 g/ha [3]: 90% |
| Cc1cc(-c2cnc(NCc3ccncc3F)nc2C(C)C)on1 [Compound 95] | – | – | – | – | – | – | – | – | pest or weed control at 62 g/ha [1]: 30%; pest or weed control at 62 g/ha [2]: 60%; pest or weed control at 62 g/ha (Veronica persica (VERPE)): 60%; pest or weed control at 62 g/ha [3]: 30% |
| Cc1cc(-c2cnc(N3CCC(O)CC3)nc2C(C)C)on1 [Compound 76] | 0 | 30 | 0 | 80 | – | – | – | – | – |
| Cc1cc(-c2cnc(N3CCN(c4ncccn4)CC3)nc2-c2ccc(C)o2)on1 [Compound 89] | – | – | – | – | 5 | 0 | 5 | 0 | – |
| COCCCNc1ncc(-c2cc(C)no2)c(C(C)C)n1 [Compound 32] | 0 | 100 | 90 | 90 | – | – | – | – | – |
| Cc1cc(-c2cnc(NC3CCOCC3)nc2C(F)(F)F)on1 [Compound 116] | – | – | – | – | 0 | 0 | 95 | 0 | – |
| Cc1cc(-c2cnc(NCc3ccccc3)nc2C(C)C)on1 [Compound 94] | – | – | – | – | – | – | – | – | pest or weed control at 62 g/ha [1]: 10%; pest or weed control at 62 g/ha [2]: 80%; pest or weed control at 62 g/ha (Veronica persica (VERPE)): 0%; pest or weed control at 62 g/ha [3]: 60% |
| COc1ccccc1CNc1ncc(-c2cc(C)no2)c(-c2ccc(C)o2)n1 [Compound 23] | 0 | 50 | 80 | 70 | – | – | – | – | – |

| SMILES | pest or weed control at 500 g/ha [1] [%] | pest or weed control at 500 g/ha [2] [%] | pest or weed control at 500 g/ha (Veronica persica (VERPE)) [%] | pest or weed control at 500 g/ha [3] [%] | pest or weed control at 125 g/ha [1] [%] | pest or weed control at 125 g/ha [2] [%] | pest or weed control at 125 g/ha (Veronica persica (VERPE)) [%] | pest or weed control at 125 g/ha [3] [%] | also measured |
| --- | --- | --- | --- | --- | --- | --- | --- | --- | --- |
| Cc1cc(-c2cnc(NCc3cccnc3)nc2C(F)(F)F)on1 [Compound 111] | – | – | – | – | 10 | 0 | 0 | 0 | – |
| Cc1cc(-c2cnc(NC3CC3)nc2-c2ccc(C)o2)on1 [Compound 44] | 30 | 20 | 20 | 70 | – | – | – | – | – |
| Cc1cc(-c2cnc(NC3CCC3)nc2C(F)(F)F)on1 [Compound 110] | – | – | – | – | 40 | 0 | 0 | 0 | – |
| Cc1cc(-c2cnc(N3CCCCC3)nc2C(C)(C)C)on1 [Compound 48] | 70 | 10 | 0 | 20 | – | – | – | – | – |
| Cc1cc(-c2cnc(NC(C)(C)C)nc2C(C)C)on1 [Compound 5] | – | – | – | – | 60 | 70 | 100 | 100 | – |
| C=COCCCNc1ncc(-c2cc(C)no2)c(C(C)(C)C)n1 [Compound 33] | 0 | 70 | 0 | 80 | – | – | – | – | – |
| COCCNc1ncc(-c2cc(C)no2)c(-c2ccc(C)o2)n1 [Compound 65] | 0 | 30 | 0 | 60 | – | – | – | – | – |
| Cc1cc(-c2cnc(NC3CCCC3)nc2C2CCC2)on1 [Compound 104] | – | – | – | – | 0 | 0 | 60 | 40 | – |
| Cc1cc(-c2cnc(N)nc2C(F)(F)F)on1 [Compound 122] | – | – | – | – | 0 | 0 | 0 | 20 | – |
| CCc1nc(NCc2ccc(F)cc2)ncc1-c1cc(C)no1 [Compound 106] | – | – | – | – | 0 | 30 | 95 | 90 | – |
| Cc1cc(-c2cnc(N(C)C3CCCC3)nc2C(C)C)on1 [Compound 9] | – | – | – | – | 60 | 60 | 80 | 95 | – |
| Cc1cc(-c2cnc(NCc3ccccc3Cl)nc2C(C)C)on1 [Compound 101] | – | – | – | – | – | – | – | – | pest or weed control at 62 g/ha [1]: 0%; pest or weed control at 62 g/ha [2]: 70%; pest or weed control at 62 g/ha (Veronica persica (VERPE)): 40%; pest or weed control at 62 g/ha [3]: 50% |
| Cc1cc(-c2cnc(N3CCCCC3)nc2C2CC2)on1 [Compound 31] | 0 | 30 | 0 | 70 | – | – | – | – | – |
| Cc1cccc(CNc2ncc(-c3cc(C)no3)c(C(C)C)n2)c1 [Compound 99] | – | – | – | – | – | – | – | – | pest or weed control at 62 g/ha [1]: 30%; pest or weed control at 62 g/ha [2]: 70%; pest or weed control at 62 g/ha (Veronica persica (VERPE)): 80%; pest or weed control at 62 g/ha [3]: 60% |
| Cc1ncc(-c2cnc(NC3CCCC3)nc2C(C)C)s1 [Compound 123] | – | – | – | – | – | – | – | – | pest or weed control at 62 g/ha [1]: 0%; pest or weed control at 62 g/ha [2]: 0%; pest or weed control at 62 g/ha (Veronica persica (VERPE)): 50%; pest or weed control at 62 g/ha [3]: 0% |
| COc1ccc(CNc2ncc(-c3onc(C)c3C)c(-c3ccco3)n2)cc1 [Compound 77] | 70 | 80 | 70 | 70 | – | – | – | – | – |
| Cc1cc(-c2cnc(NCc3ccc(F)cc3)nc2C(F)F)on1 [Compound 120] | – | – | – | – | 0 | 20 | 40 | 30 | – |
| Cc1cc(-c2cnc(NCCN3CCCC3=O)nc2C2CC2)on1 [Compound 30] | 0 | 70 | 0 | 60 | – | – | – | – | – |
| Cc1cc(-c2cnc(NCCCN3CCC(C)CC3)nc2-c2ccco2)on1 [Compound 25] | 0 | 30 | 0 | 30 | – | – | – | – | – |
| Cc1cc(-c2cnc(NCc3ccc4c(c3)OCO4)nc2C(C)(C)C)on1 [Compound 54] | 5 | 40 | 99 | 40 | – | – | – | – | – |
